The test system of assay [1] is tissue NAD(H) levels. The experiment in a line: Tissue NAD(H) levels in post-ischemic brain regions (enzymatic cycling assay). The class given is in vivo, mouse. The following applies: 10 min forebrain ischemia, NMN intraperitoneally at 1 h of reperfusion, measured at 24 h of recovery. As for the experimental part:
FIGS. 3A-3B show the effect of forebrain ischemia and nicotinamide mononucleotide administration on tissue NAD(H) levels. Mice were subjected to 10 min transient forebrain ischemia and allowed to recover for 24 h. After decapitation their brains were removed, the designated regions dissected and frozen in liquid nitrogen. One group of animals received nicotinamide mononucleotide at 1 hour of recovery. The NAD content was determined following perchloric acid extraction and utilized a coupled fluorometric cycling enzymatic assay (FIG. 3A). There is significant loss of NAD^+ in striatum, CA1, and DG regions. *p<0.05. […] Black: sham; white: ischemia; gray: NMN treatment. FIG. 3B: Effect of ischemia on CD38 activity. […] The CD38 enzyme activity was determined using 1-etheno-NAD that, when hydrolyzed by CD38, generates a fluorescent product. The rate of fluorescence increase corresponds to the CD38 enzyme activity. […]
The tissue NAD(H) levels were determined utilizing an enzymatic cycling assay. […] The parietal cortex, striatum, the CA1 sector and CA3-DG regions of the hippocampus were dissected and the tissue NAD(H) levels were determined following perchloric acid extraction. […] Nicotinamide mononucleotide was administrated intraperitoneally at 1 h of reperfusion and the tissue NAD(H) content was determined at 24 h of recovery.

Assay [2] has as its system traumatic brain injury mice. As to the kind of experiment: Open field test (anti-clockwise/clockwise rotations) after traumatic brain injury. The settings on record: NMN 500 mg/kg I.P. at 1 hour post-injury; 7 days post-injury; listed as NMN. It is filed as in vivo, mouse. The method, then:
FIGS. 9A-9B show traumatic brain injury-induced deficits in sensorimotor function and cognition are ameliorated by nicotinamide mononucleotide treatment. FIG. 9A: Fine motor coordination deficits were quantified using a beam walk test in C57Bl/6 mice subjected to moderate-level traumatic brain injury and treated with nicotinamide mononucleotide (500 mg/kg, I.P.) or equal volume of vehicle at 1 hour post-injury. Hindlimb foot placement was recorded up to 7 days post-injury and the number of foot faults recorded from 50 steps. Naïve C57Bl/6 mice served as a control group. […] Analysis was by repeated measures one-way ANOVA, followed by post-hoc adjustments using Student-Newman-Keuls test. Mean ±S.E.M.; n=5/group. FIG. 9B: Cognitive performance was analyzed by measuring the number of anti-clockwise and clockwise rotations of traumatic brain injury mice in an open field test performed at 7 days post-injury.
The effect of nicotinamide mononucleotide on traumatic brain injury-induced changes in fine motor coordination examined using a beam walking task in which mice were trained to cross an elevated narrow wooden beam. The mouse was placed on the left end of the beam and the number of foot faults for the right hind limb was recorded over 50 steps on the beam. […] Their activity was measured and recorded using the Any-maze video tracking system. […]

Assay [3] relates to CD38-deficient cells. The experiment in a line: Oxygen-glucose deprivation (OGD) in CD38-deficient cell cultures. The class given is cell-based, mouse. From the text:
At later recovery periods, tissue NAD(H) decrease since the NAD^+ translocates from mitochondria to the cytosol and is hydrolyzed by the activated NAD^+ glycohydrolases CD38 and PARP1. CD38-dependent overactivation of microglia under diabetic conditions leads to aggravation of ischemic brain damage, astrocytes and neurons prepared from CD38 knockout animals with microglia (9) from wild type or CD38-null animals are co-cultured. The co-cultures are then subjected to OGD and the cell death assessed at 24 h of recovery.
Exposure of cortical astrocytes to OGD plus ISS for 4 h results in significant (>50%) cell death after 24 h of reoxygenation (24) was determined. When cortical neurons are subjected to the same insult for 1 h, a similar level of cell death (40-50%) was observed. Cells cultured under hyperglycemic conditions (30 mM glucose) are more sensitive to the oxygen-glucose deprivation (OGD) insult. The CD38-deficient cells will have elevated basal levels of NAD(H) since the brain NAD(H) levels in CD38-null mice are several-fold higher when compared to wild type mice (6). The protective effect of CD38 knockout in specific cell types will also depend on the oxygen-glucose deprivation-induced loss of mitochondrial NAD(H) that can promote total cellular NAD(H) depletion. […]

Entries after “also recorded” stand apart in the source; their conditions may differ.

`NC(=O)c1ccc[n+]([C@@H]2O[C@H](COP(=O)([O-])O)[C@@H](O)[C@H]2O)c1` [nicotinamide mononucleotide]: the “post-ischemic brain tissue NAD(H) levels” value in assay [1] is “reversed; also recorded: complete recovery of brain tissue NAD(H) levels”; in assay [1] (listed as NMN), “prevented the post-ischemic NAD catabolism”. In addition, the “cognitive performance: anti-clockwise rotations in open field test” value in assay [2] is recorded as “virtually indistinguishable from the naïve mice; also recorded: reduced anti-clockwise rotations”. Also, the “protective effect in CD38-deficient cells compared to PARP-1 inhibitors 3-AB or PJ34” value in assay [3] was “less efficient protective effect”.

Values taken from patent US20120328526A1, “Modulation of Nad+ Activity in Neuropathophysiological Conditions and Uses Thereof” (University of Maryland, Baltimore, priority 2011, published 2012).
